Columns and labels:
[1] = system: E. coli strains CSH23/S90C and CSH22/S90C; assay: Bacterial growth assay under non-inducing conditions (loss of activity upon conjugation); type: cell-based; conditions: 10 μg/ml 5FUR or 16.2 μg/ml M0174, M9 media, FIG. 1
Experimental: E. coli strains CSH23/S90C and CSH22/S90C were tested with 5-fluorouridine (5FUR) and the 5FUR-galactoside conjugate described in Example 16, 5-fluorouridine-5′-O-β-D-galactopyranoside, (M0174) to confirm loss of biological activity upon conjugation. CSH23 is a strain inducible for lacZ expression; CSH22 is a deletion mutant for lacZ and is therefore uninducible. Other strains with these properties are commercially available. When grown under non-inducing conditions, neither strain will produce β-galactosidase. Each strain was innoculated into 10 mL M9 minimal media and grown in non-inducing conditions, shaking at 37° C. overnight. Overnight cultures (500 μL) were transferred into […] fresh M9 media and grown to logarithmic phase for 4 hours prior to beginning the experiments. 1 mL of this culture was transferred to 10 ml fresh M9 media containing 10 μg/ml 5FUR, 16.2 μg/ml M0174, or no additions, and returned to the incubator. Growth curves were generated by removing aliquots of each culture at 30 minute intervals and reading absorbance at 420 nm. All final data was run in duplicate trials.

[2] = system: E. coli CSH36/S90C and CSH22/S90C co-culture; assay: Co-culture bystander effect, colony growth on X-gal plates; type: cell-based; conditions: 10 μg/ml 5FUR or 16.2 μg/ml M0174, plated on X-gal
Experimental: E. coli strains CSH36/S90C and CSH22/S90C were grown in co-culture and tested with the 5FUR-galactoside conjugate described in Example 16, 5-fluorouridine-5′-O-β-D-galactopyranoside, (M0174) to show translocation of drug released in β-Gal expressing cells to other cells in the culture. CSH36 is a constitutive mutant for lacZ and therefore produces β-galactosidase regardless of induction conditions. CSH22 is a deletion mutant for lacZ and is therefore uninducible. Each strain individually and both strains together were innoculated into 10 mL aliquots of M9 minimal media and grown shaking at 37° C. overnight. Overnight cultures (500 μL) were transferred into 10 mL fresh M9 media and grown to logarithmic phase for 4 hours prior to beginning the experiments. 1 mL of this culture was transferred to 10 ml fresh M9 media containing 10 μg/ml 5-fluorouridine (5FUR), 16.2 μg/ml M0174, or no additions, and returned to the incubator. Growth curves were generated by removing aliquots of each culture at 30 minute intervals and reading absorbance at 420 nm. Remaining portions of these cultures were allowed to grow overnight, and final absorbance readings were taken. […] Plates were incubated at 37° C. for 48 hours, then evaluated for growth of white (indicating lacZ −, CSH22 cells) and blue (indicating lacZ+, CSH36 cells) colonies.

[3] = system: D5 tumor cells lipofected with a lacZ containing vector; assay: In vivo pulmonary tumor growth, lipofected tumor cells; set-up: species or system C57/J(B6) mice
Experimental: To test the efficacy of pro-drug delivery in vivo for initiation and mediation of a host cellular immune response to genetically modified tumor, C57/J(B6) mice (22-36 g each) are injected intravenous with 50 μL HBBS containing 1×10^6 D5 tumor cells that are either untreated, lipofected with a vector containing the lacZ gene, lipofected with a vector containing both the lacZ and the H-2K allogeneic major histocompatability complex (MHC) class I gene (Wahl, et al, 1995), or lipofected with a vector containing the H-2K gene alone. After 2 days, accumulation of the tumor cells in the lung tissue is expected. Two animals are retained as controls, and necropsy examination and tumor staining of the lipofected animals is performed at the end of the trial, to confirm pulmonary tumor growth.
The doxorubicin-galactoside pro-drug of Example 19 is administered intraperitoneally starting at Day 3, for 20 days, to mice that received lipofected tumor cells in doses of either 5, 10 or 25 mg/kg/day, and to mice that received untreated tumor cells in doses of 50 mg/kg/day. Measurement of tumor growth is determined by necropsy examination of lung tissue and staining at day 25.

[4] = system: E. coli CSH36/S90C and CSH22/S90C co-culture; assay: Co-culture selection, colony growth on X-gal plates; type: cell-based; conditions: 30 μg/ml chloramphenicol or 42 μg/ml M0165, plated on X-gal
Experimental: E. coli strains CSH36/S90C and CSH22/S90C were grown in co-culture and tested with the chloramphenicol galactoside pro-drug (M0165) described in Example 15, to show lack of translocation of drug released in β-galactosidase expressing cells to other cells in the culture, and therefore selection for the lacZ-cells. CSH36 is a constitutive mutant for lacZ and therefore produces β-galactosidase regardless of induction conditions. CSH22 is a deletion mutant for lacZ and is therefore uninducible. Each strain individually and both strains together were innoculated into 10 mL aliquots of M9 minimal media and grown shaking at 37° C. overnight. Overnight cultures (500 μL) were transferred into 10 mL fresh M9 media and grown to logarithmic phase for 4 hours prior to beginning the experiments. 1 mL of this culture was transferred to 10 ml fresh M9 media containing 30 μg/ml chloramphenicol, 42 μg/ml M0165, or no additions, and returned to the incubator. Growth curves were generated by removing aliquots of each culture at 30 minute intervals and reading absorbance at 420 nm. Remaining portions of the cultures were allowed to grow overnight, and final absorbance readings were taken. […] Plates were incubated at 37° C. for 48 hours, then evaluated for growth of white (indicating lacZ −, CSH22 cells) and blue (indicating lacZ +, CSH 36 cells) colonies.

[5] = system: D5 murine melanoma cells lipofected with pCMVβ (lacZ); assay: MTT cell proliferation assay, lacZ-lipofected tumor cells; type: cell-based
Experimental: (§1) For the MTT assay, cells are incubated with the MTT reagent, which is turned over by live cells to a purple MTT formazan product. Turnover is directly proportional to the number of live cells, enabling a proportional measurement of the number of cells to be achieved by measuring the production of MTT formazan. Media is removed from cells in the twelve well plate and replaced with DME containing 10 mM Hepes. 0.25 mL of a 2 mg/ml solution of MTT is then added to each well, and plates are covered and wrapped with aluminum foil and incubated at 37° C. for three hours. Plates are then emptied of the media MTT solution, and 1 mL of DMSO and 125 μL of Sorensens glycine buffer are added to each well to solubilize the MTT formazan product. Absorbence of each sample is measured against a DMSO blank at 570 nm.
(§2) Lipofection of D5 murine melanoma cells with the pCMVβ plasmid containing the lacZ gene provided a lacZ positive set of cells with transient but high levels of ? -galactosidase expression. A 60 mm plate of D5 cells, 80% confluent, was lipofected for 5 hours with 3.6 μg/ml pCMVB (a plasmid containing the lacZ gene)(CLONTECH) using 36 μL lipofectAmine reagent (Life Technologies, Gibco BRL). After lipofection, fresh media was added to the cells to dilute the lipofection reagent, and cells were grown for 2 days. A cover slip of the lipofected D5 cells was stained with X-gal and transfection efficiency was estimated at 70%. D5 and lipofected D5 cells were plated in 12 well plates at a density of 12×10^3 cells per well and incubated 6 hours. The 5FUR-galactoside conjugate described in Example 16, 5-fluorouridine-5′-O-β-D-galactopyranoside (M0174) was added to cells at various concentrations and cells were incubated 6 hours, after which the media was changed. Cells were allowed to grow another 36 hours, then the MTT assay was performed to estimate the number of living cells per well. Cell numbers were expressed as a percent of the number of cells in the control well. All assay points were performed in duplicate and averaged. […]

[6] = system: D5 murine melanoma cells; assay: MTT cell proliferation assay, non-lipofected tumor cells; type: cell-based
Experimental: as §1, §2

[7] = system: D5 mouse melanoma tumors lipofected with a lacZ vector; assay: In vivo growth of subcutaneous tumors from lacZ-lipofected cells; set-up: species or system C57/J(B6) mice; conditions: 25 and 50 mg/Kg/Day intraperitoneally for 4 days from Day 3
Experimental: (§3) The 5FUR-galactoside conjugate described in Example 16, 5-fluorouridine-5′-O-β-D-galactopyranoside (M0174) was tested to determine the reduction of tumor growth of subcutaneously implanted D5 mouse melanoma tumors that had been lipofected with a vector containing the lacZ marker gene in mice. […] C57/J(B6) mice (22-36 g each) were injected in the right flank with 50 μL HBBS containing 1×10^6D5 tumor cell that were either untreated or lipofected with a vector containing the lacZ gene. M0174 was administered intraperitoneally starting at Day 3, for 4 days, to mice that had received lipofected tumor cells in doses of either 25 or 50 mg/kg/day, and to mice that had received untreated tumor cells in doses of 100 mg/kg/day. Measurement of tumor area in mm^2 began on Day 8 and ended on Day 26. […] NO EFFECT (i.e. no significant drug release) for pro-drug on non-lipofected cells was found (even at 100 mg/Kg/Day), indicating once again a lack of biological activity for the pro-drug, M0174.

[8] = system: D5 mouse melanoma tumors (untreated cells); assay: In vivo growth of subcutaneous tumors from non-lipofected cells; set-up: species or system C57/J(B6) mice; conditions: 100 mg/Kg/Day intraperitoneally for 4 days from Day 3
Experimental: as §3

[9] = system: E. coli CSH36 (constitutive mutant for lacZ); assay: Bacterial growth with ONPG; type: cell-based; conditions: CSH36, no IPTG, 0.3 mg/ml ONPG
Experimental: (§4) E. coli strains CSH36 and W3110 available from the ATCC, Manassas, Va. were tested with orthonitrophenyl β-D-galactopyranoside (ONPG), according to the procedure of Marsh, 1994, to confirm release of compound upon induction of β-galactosidase production. W3110 is a wild-type E. coli strain inducible for lacZ expression; CSH36 is a constitutive mutant for lacZ and therefore produces β-galactosidase regardless of induction conditions. Each strain was innoculated into 10 mL M9 minimal media and grown in non-inducing conditions, shaking at 37° C. overnight. W3110 was also innoculated into 10 mL M9 media containing 0.3 mM iso-propyl thiogalactoside (IPTG) (W3110i) to induce β-galactosidase production. Overnight cultures (500 μL) were transferred into 10 mL fresh M9 media (+/−IPTG) and grown to logarithmic phase for 4 hours prior to beginning the experiments. 1 mL of this culture was transferred to 10 ml fresh M9 media (+/−IPTG) containing 0.3 mg/ml ONPG or no additions, and returned to the incubator. Growth curves were generated by removing aliquots of each culture at 30 minute intervals and reading absorbance at 420 nm. All final data was run in duplicate trials (A and B). […] ONP is also toxic to the bacteria, and therefore growth was retarded in those cultures producing β-galactosidase and turning over ONPG to ONP (see below and FIG. 2).

[10] = system: E. coli W3110 (inducible for lacZ); assay: Bacterial growth with ONPG with or without IPTG induction; type: cell-based; conditions: 0.3 mg/ml ONPG
Experimental: as §4

O=c1[nH]c(=O)n([C@@H]2O[C@H](CO)[C@@H](O)[C@H]2O)cc1F [Example 5FUR, 5-fluorouridine, reference compound]
effect on growth (growth curves, absorbance at 420 nm) [1]: significant decrease in growth | colony growth after overnight co-culture [2]: no growth of either cell type

COc1cccc2c1C(=O)c1c(O)c3c(c(OC4OC(CO)C(O)C(O)C4O)c1C2=O)C[C@@](OC1OC(CO)C(O)C(O)C1O)(C(C)=O)C[C@@H]3OC1CC(N)C(OC2OC(CO)C(O)C(O)C2O)CO1 (some centres unmarked) [Example 19]
tumor growth in lung tissue (necropsy and staining at day 25) ([3]; 5, 10 or 25 mg/kg/day intraperitoneally for 20 days from Day 3): Tumor regression | tumor burden ([3]; animals receiving both lacZ and H-2K gene): lower tumor burden

O=C(NC(COC1OC(CO)C(O)C(O)C1O)C(O)c1ccc([N+](=O)[O-])cc1)C(Cl)Cl [Example M0165, D(−)-threo-2,2-dichloro-N-[β-hydroxy-α-(O-β-D-galactopyranosylmethyl)-β-(4-nitrophenyl)ethyl]acetamide]
colony growth after overnight co-culture [4]: growth of only CSH22 cells

O=c1[nH]c(=O)n([C@@H]2O[C@H](CO[C@@H]3O[C@H](CO)[C@H](O)[C@H](O)[C@H]3O)[C@@H](O)[C@H]2O)cc1F [Example M0174, 5-Fluorouridine-5′-O-β-D-Galactopyranoside]
activity at 0.3 µg/mL ([5]; Mus musculus, 0.3 ug/ml, 6 hours exposure, MTT after another 36 hours, read-out: D5 lipofected, % of control growth): 48% | activity at 5 µg/mL ([5]; Mus musculus, 5 ug/ml, 6 hours exposure, MTT after another 36 hours, read-out: D5 lipofected, % of control growth): 22% | effect on cell growth ([5]; lipofected D5 cells): growth inhibited | activity at 0.3 µg/mL ([6]; Mus musculus, 0.3 ug/ml, 6 hours exposure, MTT after another 36 hours, read-out: D5 % of control growth): 110% | activity at 5 µg/mL ([6]; Mus musculus, 5 ug/ml, 6 hours exposure, MTT after another 36 hours, read-out: D5 % of control growth): 87.9% | effect on cell growth ([6]; non-lipofected cells, even at high dosage values): unaffected | tumor growth (tumor area in mm^2, Day 8 to Day 26) [7]: slight delay in tumor growth | effect on growth (growth curves, absorbance at 420 nm) [1]: very little effect | tumor growth (tumor area in mm^2, Day 8 to Day 26) [8]: NO EFFECT | colony growth after overnight co-culture [2]: no growth of either cell type

O=[N+]([O-])c1ccccc1O[C@@H]1O[C@H](CO)[C@H](O)[C@H](O)[C@H]1O [ONPG, orthonitrophenyl β-D-galactopyranoside]
Doubling Time (min) [9]: *not measurable | time after start of experiments at which growth halted [9]: *growth halted approximately 2 hours after start of experiments | Doubling Time ([10]; W3110, 0.3 mM IPTG): 215 min | Doubling Time ([10]; W3110, no IPTG): 92 min

O=C(N[C@H](CO)[C@H](O)c1ccc([N+](=O)[O-])cc1)C(Cl)Cl [chloramphenicol, reference compound]
colony growth after overnight co-culture [4]: no growth of either cell type

From patent publication US8716558B2, “Method of altering glycosylation of proteins in response to nojirimycin glucuronide in a plant cell expressing glucuronidase” (Marker Gene Technologies, Inc., priority 1999, dated 2014)
